Where two headings read alike, the source gives them in different places.
Target: T1, human APJ receptor (Homo sapiens, UniProt P35414)
T1 construct: expressed in transfected cells
T1 sequence (P35414 1-380): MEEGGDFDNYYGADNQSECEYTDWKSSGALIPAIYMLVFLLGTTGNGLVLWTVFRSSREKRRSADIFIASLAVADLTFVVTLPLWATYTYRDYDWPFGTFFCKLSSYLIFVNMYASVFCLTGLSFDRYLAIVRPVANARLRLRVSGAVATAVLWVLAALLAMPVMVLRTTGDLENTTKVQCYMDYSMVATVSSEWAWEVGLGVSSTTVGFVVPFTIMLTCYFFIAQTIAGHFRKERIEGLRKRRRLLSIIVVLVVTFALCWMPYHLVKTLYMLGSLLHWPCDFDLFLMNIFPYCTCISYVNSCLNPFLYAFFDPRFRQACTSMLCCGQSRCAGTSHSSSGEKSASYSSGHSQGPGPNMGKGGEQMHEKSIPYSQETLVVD
Test: Intracellular cAMP accumulation assay (APJ hcAMP, HTRF)
Assay type: cell-based
Conditions: HEK293 cells stably expressing human APJ receptor
Protocol: Intracellular cAMP Accumulation Assay
HEK293 cells stably expressing human APJ receptor were used to assess the activity of compounds. Cultured cells were detached and resuspended in the cAMP Homogeneous Time-Resolved Fluorescence (HTRF) assay buffer (Cisbio cat; #62AM4PEJ). The assay was performed in 384-well assay plates (Perkin-Elmer; cat #6008289) according to assay protocol provided by the manufacturer. Serial dilutions of a compound together with assay buffer containing […] IBMX and 2 μM forskolin were added to each well containing 5,000 cells and incubated for 30 minutes at room temperature. Subsequently, cAMP D2 reagent was added in the lysis buffer followed by the EuK antibody (Cisbio; cat #62AM4PEJ) and incubated for 60 min. The fluorescence emission ratio was measured using fluorometer. The intracellular cAMP concentrations (compound-stimulated inhibition of forskolin-mediated cAMP production) were calculated by extrapolation from a standard curve using known cAMP concentrations. The EC50 values were obtained by fitting the data to a sigmoidal concentration-response curve with variable slope. The maximal achievable inhibition of forskolin-induced cAMP levels (Ymax) for each compound was expressed as relative percentage of inhibition attained using pyroglutamated apelin-13 ((Pyr1)apelin-13) peptide, which was set to 100%.
The examples disclosed below were tested in the APJ in vitro assays described above and were found having human APJ cyclic AMP (hcAMP) activity. The EC50 value of each compound is presented at the end of the example description.
The biological activity of the exemplified compounds of this invention determined by the assay described above is shown at the end of each example.

[1] = Table 1, read-out: hAPJ cAMP EC50 Potency range
[2] = inhibition of forskolin-mediated cAMP production, stated at end of example, read-out: Human APJ cAMP Potency Range

SMILES | EC50 [1] | EC50 [2]
[2H]C([2H])([2H])Oc1cccc(OC([2H])([2H])[2H])c1-n1c(COCC)nc(=O)c(-c2nnc(Cc3noc4ccccc34)o2)c1O [Example 50, 5-[5-(1,2-benzoxazol-3-ylmethyl)-1,3,4-oxadiazol-2-yl]-1-[2,6-bis(^2H3)methoxyphenyl]-2-(ethoxymethyl)-6-hydroxy-1,4-dihydropyrimidin-4-one] | 0.01 to 10 nM | 
CCN(CC)C(=O)Cc1nnc(-c2c(O)n(-c3c(OC)cccc3OC)c(CCC3CC3)nc2=O)o1 [Example 52, 2-(5-(2-(2-Cyclopropylethyl)-1-(2,6-dimethoxyphenyl)-6-hydroxy-4-oxo-1,4-dihydropyrimidin-5-yl)-1,3,4-oxadiazol-2-yl)-N,N-diethylacetamide] |  | 0.01 to 10 nM
COc1cccc(OC)c1-n1c(CCC2CC2)nc(=O)c(-c2nnc(CN(C)C(=O)c3ccccn3)o2)c1O [Example 54, N-({5-[2-(2-cyclopropylethyl)-1-(2,6-dimethoxyphenyl)-6-hydroxy-4-oxo-1,4-dihydropyrimidin-5-yl]-1,3,4-oxadiazol-2-yl}methyl)-N-methylpyridine-2-carboxamide] | 0.01 to 10 nM | 
COc1cccc(OC)c1-n1c(CCC2CC2)nc(=O)c(-c2nnc(CNC(=O)c3cccc(Cl)c3)o2)c1O [Example 55, 3-chloro-N-({5-[2-(2-cyclopropylethyl)-1-(2,6-dimethoxyphenyl)-6-hydroxy-4-oxo-1,4-dihydropyrimidin-5-yl]-1,3,4-oxadiazol-2-yl}methyl)benzamide] | 0.01 to 10 nM | 
COc1cccc(OC)c1-n1c(CCC2CC2)nc(=O)c(-c2nnc(CNC(=O)c3ccccc3)o2)c1O [Example 57, N-({5-[2-(2-cyclopropylethyl)-1-(2,6-dimethoxyphenyl)-6-hydroxy-4-oxo-1,4-dihydropyrimidin-5-yl]-1,3,4-oxadiazol-2-yl}methyl)benzamide] | 0.01 to 10 nM | 
COc1cccc(OC)c1-n1c(CCC2CC2)nc(=O)c(-c2nnc(CNC(=O)c3ccccn3)o2)c1O [Example 58, N-({5-[2-(2-cyclopropylethyl)-1-(2,6-dimethoxyphenyl)-6-hydroxy-4-oxo-1,4-dihydropyrimidin-5-yl]-1,3,4-oxadiazol-2-yl}methyl)pyridine-2-carboxamide] | 0.01 to 10 nM | 
COc1cccc(OC)c1-n1c(CCC2CC2)nc(=O)c(-c2nnc(Cc3ccc(Cl)cn3)o2)c1O [Example 59, 5-{5-[(5-chloropyridin-2-yl)methyl]-1,3,4-oxadiazol-2-yl}-2-(2-cyclopropylethyl)-1-(2,6-dimethoxyphenyl)-6-hydroxy-1,4-dihydropyrimidin-4-one] | 0.01 to 10 nM | 
COc1cccc(OC)c1-n1c(CCC2CC2)nc(=O)c(-c2nnc(Cc3ccc(F)cn3)o2)c1O [Example 61, 2-(2-cyclopropylethyl)-1-(2,6-dimethoxyphenyl)-5-{5-[(5-fluoropyridin-2-yl)methyl]-1,3,4-oxadiazol-2-yl}-6-hydroxy-1,4-dihydropyrimidin-4-one] | 0.01 to 10 nM | 
COc1cccc(OC)c1-n1c(C2CCCC2)nc(=O)c(-c2nnc(Cc3ccc(Cl)nc3)o2)c1O [Example 63, 5-{5-[(6-chloropyridin-3-yl)methyl]-1,3,4-oxadiazol-2-yl}-2-cyclopentyl-1-(2,6-dimethoxyphenyl)-6-hydroxy-1,4-dihydropyrimidin-4-one] | 0.01 to 10 nM | 
COc1cccc(OC)c1-n1c(C2CCCC2)nc(=O)c(-c2nnc(CN3CCCC3=O)o2)c1O [Example 64, 2-cyclopentyl-1-(2,6-dimethoxyphenyl)-6-hydroxy-5-{5-[(2-oxopyrrolidin-1-yl)methyl]-1,3,4-oxadiazol-2-yl}-1,4-dihydropyrimidin-4-one] | 0.01 to 10 nM | 
COc1cccc(OC)c1-n1c(C2CCCC2)nc(=O)c(-c2nnc(Cc3csc(C)n3)o2)c1O [Example 65, 2-cyclopentyl-1-(2,6-dimethoxyphenyl)-6-hydroxy-5-{5-[(2-methyl-1,3-thiazol-4-yl)methyl]-1,3,4-oxadiazol-2-yl}-1,4-dihydropyrimidin-4-one] | 0.01 to 10 nM | 
COc1cccc(OC)c1-n1c(C2CCCC2)nc(=O)c(-c2nnc(Cc3ccc(Cl)cn3)o2)c1O [Example 66, 5-{5-[(5-chloropyridin-2-yl)methyl]-1,3,4-oxadiazol-2-yl}-2-cyclopentyl-1-(2,6-dimethoxyphenyl)-6-hydroxy-1,4-dihydropyrimidin-4-one] | 0.01 to 10 nM | 
COc1cccc(OC)c1-n1c(C2CCCC2)nc(=O)c(-c2nnc(Cc3ccc(F)cn3)o2)c1O [Example 67, 2-cyclopentyl-1-(2,6-dimethoxyphenyl)-5-{5-[(5-fluoropyridin-2-yl)methyl]-1,3,4-oxadiazol-2-yl}-6-hydroxy-1,4-dihydropyrimidin-4-one] | 0.01 to 10 nM | 
COc1cccc(OC)c1-n1c(C2CCCC2)nc(=O)c(-c2nnc(Cc3ncc(Cl)cc3F)o2)c1O [Example 69, 5-{5-[(5-chloro-3-fluoropyridin-2-yl)methyl]-1,3,4-oxadiazol-2-yl}-2 cyclopentyl-1-(2,6-dimethoxyphenyl)-6-hydroxy-1,4-dihydropyrimidin-4-one] | 0.01 to 10 nM | 
COc1cccc(OC)c1-n1c(C2CCC2)nc(=O)c(-c2nnc(Cc3ccc(Cl)cn3)o2)c1O [Example 70, 5-{5-[(5-chloropyridin-2-yl)methyl]-1,3,4-oxadiazol-2-yl}-2-cyclobutyl-1-(2,6-dimethoxyphenyl)-6-hydroxy-1,4-dihydropyrimidin-4-one] | 0.01 to 10 nM | 
COc1cccc(OC)c1-n1c(C2CCC2)nc(=O)c(-c2nnc(Cc3ncc(Cl)cc3F)o2)c1O [Example 71, 5-{5-[(5-chloro-3-fluoropyridin-2-yl)methyl]-1,3,4-oxadiazol-2-yl}-2-cyclobutyl-1-(2,6-dimethoxyphenyl)-6-hydroxy-1,4-dihydropyrimidin-4-one] | 0.01 to 10 nM | 

Now from value to compound:

EC50 [1] | EC50 [2] | SMILES
0.01 to 10 nM |  | [2H]C([2H])([2H])Oc1cccc(OC([2H])([2H])[2H])c1-n1c(CCCC)nc(=O)c(-c2nnc(Cc3ccc(Cl)cc3)o2)c1O [Example 49, 1-[2,6-bis(^2H3)methoxyphenyl]-2-butyl-5-{5-[(4-chlorophenyl)methyl]-1,3,4-oxadiazol-2-yl}-6-hydroxy-1,4-dihydropyrimidin-4-one]
0.01 to 10 nM |  | [2H]C([2H])([2H])Oc1cccc(OC([2H])([2H])[2H])c1-n1c(COCC)nc(=O)c(-c2nnc(Cc3ccc(Cl)cc3)o2)c1O [Example 51, 1-[2,6-bis(^2H3)methoxyphenyl]-5-{5-[(4-chlorophenyl)methyl]-1,3,4-oxadiazol-2-yl}-2-(ethoxymethyl)-6-hydroxy-1,4-dihydropyrimidin-4-one]
 | 0.01 to 10 nM | COc1cccc(OC)c1-n1c(CCC2CC2)nc(=O)c(-c2nnc(CN(C)C(=O)c3ccccn3)o2)c1O [Example 53, N-((5-(2-(2-cyclopropylethyl)-1-(2,6-dimethoxyphenyl)-6-hydroxy-4-oxo-1,4-dihydropyrimidin-5-yl)-1,3,4-oxadiazol-2-yl)methyl)-N-methylpicolinamide]
0.01 to 10 nM |  | COc1cccc(OC)c1-n1c(CCC2CC2)nc(=O)c(-c2nnc(CNC(=O)c3cccnc3)o2)c1O [Example 56, N-({5-[2-(2-cyclopropylethyl)-1-(2,6-dimethoxyphenyl)-6-hydroxy-4-oxo-1,4-dihydropyrimidin-5-yl]-1,3,4-oxadiazol-2-yl}methyl)pyridine-3-carboxamide]
0.01 to 10 nM |  | COc1cccc(OC)c1-n1c(COC(C)C)nc(=O)c(-c2nnc(Cc3ccc(Cl)cc3F)o2)c1O [Example 60, 5-{5-[(4-chloro-2-fluorophenyl)methyl]-1,3,4-oxadiazol-2-yl}-1-(2,6-dimethoxyphenyl)-6-hydroxy-2-[(propan-2-yloxy)methyl]-1,4-dihydropyrimidin-4-one]
0.01 to 10 nM |  | COc1cccc(OC)c1-n1c(C2CCCC2)nc(=O)c(-c2nnc(Cn3ccccc3=O)o2)c1O [Example 62, 2-cyclopentyl-1-(2,6-dimethoxyphenyl)-6-hydroxy-5-{5-[(2-oxo-1,2-dihydropyridin-1-yl)methyl]-1,3,4-oxadiazol-2-yl}-1,4-dihydropyrimidin-4-one]
0.01 to 10 nM |  | COc1cccc(OC)c1-n1c(C2CCCC2)nc(=O)c(-c2nnc(Cc3ccc(C)nc3)o2)c1O [Example 68, 2-cyclopentyl-1-(2,6-dimethoxyphenyl)-6-hydroxy-5-{5-[(6-methylpyridin-3-yl)methyl]-1,3,4-oxadiazol-2-yl}-1,4-dihydropyrimidin-4-one]

Reference: US10669261B2, “Heteroarylhydroxypyrimidinones as agonists of the APJ receptor” (BRISTOL-MYERS SQUIBB COMPANY, priority 2015, dated 2020)
